Measured values: article PMC5218480 (PLoS ONE, 2017)

System: MV-4-11 cells
Assay: Gene expression microarray analysis (Affymetrix PrimeView) and GSEA
Type: cell-based, human
Parameters: RFU PODN (11730768_x_at) / Fold change /veh PODN (11730768_x_at) / RFU LINC00158 (11744669_a_at) / Fold change /veh LINC00158 (11744669_a_at) / RFU DUSP10 (11751237_a_at) / Fold change /veh DUSP10 (11751237_a_at) / RFU ID3 (11757404_x_at) / Fold change /veh ID3 (11757404_x_at) / RFU PLEKHG5 (11737974_s_at) / Fold change /veh PLEKHG5 (11737974_s_at) / RFU LRRC4B (11730491_at) / Fold change /veh LRRC4B (11730491_at) / RFU GIMAP4 (11747438_a_at) / Fold change /veh GIMAP4 (11747438_a_at) / RFU KRT8 (11758183_x_at) / Fold change /veh KRT8 (11758183_x_at) / RFU CNN1 (11734310_a_at) / Fold change /veh CNN1 (11734310_a_at) / RFU VPS37D (11726825_at) / Fold change /veh VPS37D (11726825_at) / RFU C10orf10 (11716522_x_at) / Fold change /veh C10orf10 (11716522_x_at) / RFU KIR2DL2 /// KIR2DL4 /// KIR2DL5A /// KIR2DL5B /// KIR2DS1 /// KIR2DS2 /// KIR2DS3 /// KIR2DS4 /// KIR3DL3 /// KIR3DL3 /// KIR3DS1 (11738374_at) / Fold change /veh KIR2DL2 /// KIR2DL4 /// KIR2DL5A /// KIR2DL5B /// KIR2DS1 /// KIR2DS2 /// KIR2DS3 /// KIR2DS4 /// KIR3DL3 /// KIR3DL3 /// KIR3DS1 (11738374_at) / RFU C1QL1 (11718748_at) / Fold change /veh C1QL1 (11718748_at) / RFU TMPRSS4 (11747572_a_at) / Fold change /veh TMPRSS4 (11747572_a_at) / RFU HAMP (11756126_x_at) / Fold change /veh HAMP (11756126_x_at) / RFU RNFT2 (11725882_a_at) / Fold change /veh RNFT2 (11725882_a_at) / RFU NR4A2 (11747474_a_at) / Fold change /veh NR4A2 (11747474_a_at) / RFU ABCC12 (11746883_a_at) / Fold change /veh ABCC12 (11746883_a_at) / RFU TMEM136 (11760407_x_at) / Fold change /veh TMEM136 (11760407_x_at) / RFU CLDN22 /// WWC2 (11732394_at) / Fold change /veh CLDN22 /// WWC2 (11732394_at) / RFU HLA-DPB1 (11760878_x_at) / Fold change /veh HLA-DPB1 (11760878_x_at) / RFU SPINT1 (11716480_a_at) / Fold change /veh SPINT1 (11716480_a_at) / RFU GAP43 (11754022_s_at) / Fold change /veh GAP43 (11754022_s_at) / RFU A4GNT (11735810_at) / Fold change /veh A4GNT (11735810_at) / RFU PRB3 (11715151_x_at) / Fold change /veh PRB3 (11715151_x_at) / RFU TUBB4B (11761932_at) / Fold change /veh TUBB4B (11761932_at) / RFU CAPN14 (11732068_a_at) / Fold change /veh CAPN14 (11732068_a_at) / RFU TMCC2 (11721928_a_at) / Fold change /veh TMCC2 (11721928_a_at) / RFU IRGQ (11745062_a_at) / Fold change /veh IRGQ (11745062_a_at) / RFU FAM174B (11720279_a_at) / Fold change /veh FAM174B (11720279_a_at) / RFU TMPRSS4 (11748680_a_at) / Fold change /veh TMPRSS4 (11748680_a_at) / RFU FAM212B (11763350_a_at) / Fold change /veh FAM212B (11763350_a_at) / RFU PLEKHG5 (11743358_a_at) / Fold change /veh PLEKHG5 (11743358_a_at) / RFU ZSCAN30 (11745921_a_at) / Fold change /veh ZSCAN30 (11745921_a_at) / RFU CMKLR1 (11741424_a_at) / Fold change /veh CMKLR1 (11741424_a_at) / RFU LOC101060620 /// MAPK8IP1 (11723275_at) / Fold change /veh LOC101060620 /// MAPK8IP1 (11723275_at) / RFU SPTSSB (11747773_x_at) / Fold change /veh SPTSSB (11747773_x_at) / RFU PRSS12 (11739890_at) / Fold change /veh PRSS12 (11739890_at) / RFU BIN1 (11741810_x_at) / Fold change /veh BIN1 (11741810_x_at) / RFU WNT11 (11732464_a_at) / Fold change /veh WNT11 (11732464_a_at) / RFU C10orf10 (11716521_a_at) / Fold change /veh C10orf10 (11716521_a_at) / RFU C5orf56 (11738089_at) / Fold change /veh C5orf56 (11738089_at) / RFU CYB561 (11721691_x_at) / Fold change /veh CYB561 (11721691_x_at) / RFU ANKRD19P (11752326_a_at) / Fold change /veh ANKRD19P (11752326_a_at) / RFU OR2T12 /// OR2T33 /// OR2T8 (11738714_s_at) / Fold change /veh OR2T12 /// OR2T33 /// OR2T8 (11738714_s_at) / RFU VCAN (11748164_a_at) / Fold change /veh VCAN (11748164_a_at) / RFU JSRP1 (11732532_at) / Fold change /veh JSRP1 (11732532_at) / RFU KRTAP10-11 (11738290_x_at) / Fold change /veh KRTAP10-11 (11738290_x_at) / RFU MYO3A (11730013_a_at) / Fold change /veh MYO3A (11730013_a_at) / RFU EBF3 (11725865_a_at) / Fold change /veh EBF3 (11725865_a_at) / RFU CAMK2N1 (11719241_x_at) / Fold change /veh CAMK2N1 (11719241_x_at) / RFU C5orf56 (11738088_a_at) / Fold change /veh C5orf56 (11738088_a_at) / RFU OLFML3 (11715873_a_at) / Fold change /veh OLFML3 (11715873_a_at) / RFU LOC100653217 /// NTM (11731650_a_at) / Fold change /veh LOC100653217 /// NTM (11731650_a_at) / RFU MAPK11 (11762145_a_at) / Fold change /veh MAPK11 (11762145_a_at) / RFU FIZ1 (11724087_x_at) / Fold change /veh FIZ1 (11724087_x_at) / RFU OASL (11726364_x_at) / Fold change /veh OASL (11726364_x_at) / RFU SOX15 (11748057_x_at) / Fold change /veh SOX15 (11748057_x_at) / RFU CD79A (11719716_a_at) / Fold change /veh CD79A (11719716_a_at) / RFU HIST1H1D (11736915_at) / Fold change /veh HIST1H1D (11736915_at) / RFU CASKIN2 (11723855_a_at) / Fold change /veh CASKIN2 (11723855_a_at) / RFU LOC730098 (11760151_x_at) / Fold change /veh LOC730098 (11760151_x_at) / RFU OR4N2 (11742367_at) / Fold change /veh OR4N2 (11742367_at) / RFU PRRT2 (11749266_a_at) / Fold change /veh PRRT2 (11749266_a_at) / RFU SNX32 (11753110_a_at) / Fold change /veh SNX32 (11753110_a_at) / RFU CDHR5 (11726645_a_at) / Fold change /veh CDHR5 (11726645_a_at) / RFU RCAN1 (11760418_a_at) / Fold change /veh RCAN1 (11760418_a_at) / RFU FAM167A (11723789_a_at) / Fold change /veh FAM167A (11723789_a_at) / RFU FAM26E (11764081_at) / Fold change /veh FAM26E (11764081_at) / RFU ISYNA1 (11749810_s_at) / Fold change /veh ISYNA1 (11749810_s_at) / RFU ACY1 (11761880_at) / Fold change /veh ACY1 (11761880_at) / RFU 11764098_at / Fold change /veh 11764098_at / RFU SAMD14 (11745864_x_at) / Fold change /veh SAMD14 (11745864_x_at) / RFU NPB (11741838_a_at) / Fold change /veh NPB (11741838_a_at) / RFU TMPRSS6 (11731388_a_at) / Fold change /veh TMPRSS6 (11731388_a_at) / RFU KRTAP10-2 (11738614_at) / Fold change /veh KRTAP10-2 (11738614_at) / RFU ARHGAP8 /// PRR5-ARHGAP8 (11727945_x_at) / Fold change /veh ARHGAP8 /// PRR5-ARHGAP8 (11727945_x_at) / RFU KRTAP5-7 /// NADSYN1 (11734609_at) / Fold change /veh KRTAP5-7 /// NADSYN1 (11734609_at) / RFU RASL12 (11751679_a_at) / Fold change /veh RASL12 (11751679_a_at) / RFU CDKN2B (11736163_a_at) / Fold change /veh CDKN2B (11736163_a_at) / RFU PRF1 (11729649_at) / Fold change /veh PRF1 (11729649_at) / RFU, ZNF638 /// ZNF638-IT1 / Fold change vs veh, ZNF638 /// ZNF638-IT1 / RFU, PANK3 / Fold change vs veh, PANK3 / RFU, SH3YL1 / Fold change vs veh, SH3YL1 / RFU, ZEB2 / Fold change vs veh, ZEB2 / RFU, NRIP1 / Fold change vs veh, NRIP1 / RFU, PTTG1IP / Fold change vs veh, PTTG1IP / RFU, CAPN2 / Fold change vs veh, CAPN2 / RFU, MED14 / Fold change vs veh, MED14 / RFU, SNORA58 / Fold change vs veh, SNORA58 / RFU, C1orf63 / Fold change vs veh, C1orf63 / RFU, LRRFIP1 / Fold change vs veh, LRRFIP1 / RFU, NDUFAF7 / Fold change vs veh, NDUFAF7 / RFU, SLC12A2 / Fold change vs veh, SLC12A2 / RFU, IBTK / Fold change vs veh, IBTK / RFU, ESF1 / Fold change vs veh, ESF1 / Fold change vs veh, TMEM50B / RFU, TAOK1 / Fold change vs veh, TAOK1 / RFU, ACBD3 / Fold change vs veh, ACBD3 / RFU, TMA16 / Fold change vs veh, TMA16 / RFU, RWDD3 / Fold change vs veh, RWDD3 / RFU, BCAT1 / Fold change vs veh, BCAT1 / RFU, EDEM3 / Fold change vs veh, EDEM3 / RFU, TMEM33 / Fold change vs veh, TMEM33 / RFU, WDR75 / Fold change vs veh, WDR75 / RFU, AHCTF1 / Fold change vs veh, AHCTF1 / RFU, TFRC / Fold change vs veh, TFRC / RFU, ZDHHC17 / Fold change vs veh, ZDHHC17 / RFU, NOM1 / Fold change vs veh, NOM1 / RFU, ARL8B / Fold change vs veh, ARL8B / RFU, ZBTB11 / Fold change vs veh, ZBTB11 / RFU, TAMM41 / Fold change vs veh, TAMM41 / RFU, KIAA1704 /// LOC100996395 / Fold change vs veh, KIAA1704 /// LOC100996395 / RFU, ING1 / Fold change vs veh, ING1 / RFU, TRMT61B / Fold change vs veh, TRMT61B / RFU, FUBP3 / Fold change vs veh, FUBP3 / RFU, TP53 / Fold change vs veh, TP53 / RFU, TNKS2 / Fold change vs veh, TNKS2 / RFU, ZFP14 / Fold change vs veh, ZFP14 / RFU, ACTR2 / Fold change vs veh, ACTR2 / RFU, PPP3R1 / Fold change vs veh, PPP3R1 / RFU, PIK3R1 / Fold change vs veh, PIK3R1 / RFU, HNRNPA1 / Fold change vs veh, HNRNPA1 / RFU, RNF170 / Fold change vs veh, RNF170 / RFU, ZNF28 / Fold change vs veh, ZNF28 / RFU, RNGTT / Fold change vs veh, RNGTT / RFU, OGT / Fold change vs veh, OGT / RFU, BRD1 / Fold change vs veh, BRD1 / RFU, MARS / Fold change vs veh, MARS / RFU, ZNF655 / Fold change vs veh, ZNF655 / RFU, FAHD1 / Fold change vs veh, FAHD1 / RFU, BDP1 / Fold change vs veh, BDP1 / RFU, LRRCC1 / Fold change vs veh, LRRCC1 / RFU, ARID1A / Fold change vs veh, ARID1A / RFU, ZNF146 / Fold change vs veh, ZNF146 / RFU, ZNF330 / Fold change vs veh, ZNF330 / RFU, GPN3 / Fold change vs veh, GPN3 / RFU, C9orf123 / Fold change vs veh, C9orf123 / RFU, N4BP2L2 / Fold change vs veh, N4BP2L2 / RFU, ARFIP1 / Fold change vs veh, ARFIP1 / RFU, FAM179B / Fold change vs veh, FAM179B / RFU, BCL10 / Fold change vs veh, BCL10 / RFU, UHRF1BP1L / Fold change vs veh, UHRF1BP1L / RFU, BET1 / Fold change vs veh, BET1 / RFU, CNOT2 / Fold change vs veh, CNOT2 / RFU, ZNF268 / Fold change vs veh, ZNF268 / Fold change vs veh, ZNF507 / RFU, DGCR2 / Fold change vs veh, DGCR2 / RFU, WDSUB1 / Fold change vs veh, WDSUB1 / Fold change vs veh, HSP90B1 /// MIR3652 / RFU, ADSS / Fold change vs veh, ADSS / RFU, GK / Fold change vs veh, GK / RFU, ZNF148 / Fold change vs veh, ZNF148 / RFU, TAF9 / Fold change vs veh, TAF9 / RFU, SLC1A5 / Fold change vs veh, SLC1A5 / RFU, SLMO2 / Fold change vs veh, SLMO2 / RFU, ABCC4 / Fold change vs veh, ABCC4 / RFU, LOC101060439 /// RAP1B / Fold change vs veh, LOC101060439 /// RAP1B / RFU, RFX7 / Fold change vs veh, RFX7 / RFU, GTPBP10 / Fold change vs veh, GTPBP10 / RFU, CNEP1R1 / Fold change vs veh, CNEP1R1 / RFU, BIVM-ERCC5 /// ERCC5 / Fold change vs veh, BIVM-ERCC5 /// ERCC5 / RFU, ILF3 / Fold change vs veh, ILF3 / RFU 11762660_at / Fold change /veh 11762660_at / RFU VCAN (11757783_s_at) / Fold change /veh VCAN (11757783_s_at) / RFU DDX43 (11728927_at) / Fold change /veh DDX43 (11728927_at) / RFU KRT8 (11758188_x_at) / Fold change /veh KRT8 (11758188_x_at) / RFU NKD1 (11759106_at) / Fold change /veh NKD1 (11759106_at) / RFU SRD5A1 (11742802_a_at) / Fold change /veh SRD5A1 (11742802_a_at) / RFU TPSAB1 /// TPSB2 (11721975_s_at) / Fold change /veh TPSAB1 /// TPSB2 (11721975_s_at) / RFU GSTM3 (11746129_a_at) / Fold change /veh GSTM3 (11746129_a_at) / RFU IL23R (11737362_x_at) / Fold change /veh IL23R (11737362_x_at) / RFU TMEM51 (11727254_a_at) / Fold change /veh TMEM51 (11727254_a_at) / RFU PIWIL2 (11732686_x_at) / Fold change /veh PIWIL2 (11732686_x_at) / RFU ORM1 (11744905_x_at) / Fold change /veh ORM1 (11744905_x_at) / RFU CCDC152 (11743942_at) / Fold change /veh CCDC152 (11743942_at) / RFU ECM1 (11717891_a_at) / Fold change /veh ECM1 (11717891_a_at) / RFU IL23R (11748794_a_at) / Fold change /veh IL23R (11748794_a_at) / RFU TNFAIP8L3 (11732012_x_at) / Fold change /veh TNFAIP8L3 (11732012_x_at) / RFU MBOAT4 (11741988_at) / Fold change /veh MBOAT4 (11741988_at) / RFU 11764193_at / Fold change /veh 11764193_at / RFU TMEM53 (11763286_at) / Fold change /veh TMEM53 (11763286_at) / RFU MAGEB2 (11727129_at) / Fold change /veh MAGEB2 (11727129_at) / RFU TMEM200A (11744735_a_at) / Fold change /veh TMEM200A (11744735_a_at) / RFU CCDC152 (11751479_a_at) / Fold change /veh CCDC152 (11751479_a_at) / RFU FAM211A (11726209_a_at) / Fold change /veh FAM211A (11726209_a_at) / RFU RGS16 (11746705_a_at) / Fold change /veh RGS16 (11746705_a_at) / RFU VCAN (11755009_s_at) / Fold change /veh VCAN (11755009_s_at) / RFU RHOB (11743442_s_at) / Fold change /veh RHOB (11743442_s_at) / RFU RGS16 (11720943_a_at) / Fold change /veh RGS16 (11720943_a_at) / RFU RGS16 (11720944_at) / Fold change /veh RGS16 (11720944_at) / RFU, VPS4B / Fold change vs veh, VPS4B / RFU, CREB1 / Fold change vs veh, CREB1 / RFU, DNAJC13 / Fold change vs veh, DNAJC13 / RFU, GNAQ / Fold change vs veh, GNAQ / RFU, CDK5R1 / Fold change vs veh, CDK5R1 / RFU, ZRANB3 / Fold change vs veh, ZRANB3 / RFU, CUL4A / Fold change vs veh, CUL4A / RFU, CCNY / Fold change vs veh, CCNY / RFU, UFL1 / Fold change vs veh, UFL1 / RFU, COG3 / Fold change vs veh, COG3 / RFU, DIAPH2 / Fold change vs veh, DIAPH2 / RFU, SKA2 / Fold change vs veh, SKA2 / RFU, AFF3 / Fold change vs veh, AFF3 / RFU, LMF1 / Fold change vs veh, LMF1 / RFU, IPO11 / Fold change vs veh, IPO11 / RFU, DFFB / Fold change vs veh, DFFB / RFU, FOXP1 / Fold change vs veh, FOXP1 / RFU, CARD8 / Fold change vs veh, CARD8 / RFU, STRN3 / Fold change vs veh, STRN3 / RFU, ADK / Fold change vs veh, ADK / RFU, RASSF2 / Fold change vs veh, RASSF2 / RFU, WIPF1 / Fold change vs veh, WIPF1 / RFU, LARP1B / Fold change vs veh, LARP1B / RFU, RASA1 / Fold change vs veh, RASA1 / RFU, RB1 / Fold change vs veh, RB1 / RFU, PPFIA1 / Fold change vs veh, PPFIA1 / RFU, MAT2A / Fold change vs veh, MAT2A / RFU, CCT5 / Fold change vs veh, CCT5 / RFU, WDR92 / Fold change vs veh, WDR92 / RFU, CUX1 / Fold change vs veh, CUX1 / RFU, TTC7A / Fold change vs veh, TTC7A / RFU, TMEM135 / Fold change vs veh, TMEM135 / RFU, DEPTOR / Fold change vs veh, DEPTOR / RFU, CPM / Fold change vs veh, CPM / RFU, DNAJB6 / Fold change vs veh, DNAJB6 / RFU, CACNA2D3 / Fold change vs veh, CACNA2D3 / RFU, DTX4 / Fold change vs veh, DTX4 / RFU, TFCP2 / Fold change vs veh, TFCP2 / RFU, GMCL1 /// GMCL1P1 / Fold change vs veh, GMCL1 /// GMCL1P1 / RFU, AEBP2 / Fold change vs veh, AEBP2 / RFU, SNHG1 /// SNORD22 /// SNORD25 /// SNORD26 /// SNORD27 /// SNORD28 /// SNORD29 /// SNORD31 / Fold change vs veh, SNHG1 /// SNORD22 /// SNORD25 /// SNORD26 /// SNORD27 /// SNORD28 /// SNORD29 /// SNORD31 / Fold change (Aza/veh), C12orf56 (ProbeSet 11735607_a_at) / Fold change (ACY-1035/veh), C12orf56 (ProbeSet 11735607_a_at) / Fold change (Aza/veh), FGFR1OP (ProbeSet 11751329_s_at) / Fold change (ACY-1035/veh), FGFR1OP (ProbeSet 11751329_s_at) / Fold change (Aza/veh), VPS36 (ProbeSet 11739960_a_at) / Fold change (ACY-1035/veh), VPS36 (ProbeSet 11739960_a_at) / RFU SYPL1 (11715823_x_at) / Fold change /veh SYPL1 (11715823_x_at) / RFU IGFBP7 (11715501_s_at) / Fold change /veh IGFBP7 (11715501_s_at) / RFU REEP3 (11722064_at) / Fold change /veh REEP3 (11722064_at) / RFU IGLL1 (11728026_x_at) / Fold change /veh IGLL1 (11728026_x_at): dose or concentration left out as unconfirmed
Conditions: MV-4-11 cells, 48 hours

Nc1ccc(-c2cccs2)cc1NC(=O)c1ccc2c(c1)cc(C1CC1)n2CCN1CCOCC1 [ACY-1035]
Fold change /veh KRTAP10-11 (11738290_x_at): 1.00
